# Measured values taken from patent US9040545B2, “Heterocyclyl pyrazolopyrimidine analogues as selective JAK inhibitors” (Cellzome Limited, priority 2010, dated 2015).
# Experiments:
# JAK2 = biological target: T1, JAK2 (Homo sapiens, UniProt O60674); experiment: Kinobeads assay, JAK2; format: binding; conditions: mixed Molt4/Ramos lysate, read-out: Inhibition values (IC50) JAK2
# T1 construct: endogenous in cells; host or cells: mixed Molt4/Ramos lysate (1:2)
# Protocol: (§1) The compounds of the present invention as described in the previous examples were tested in a Kinobeads™ assay as described for ZAP-70 (WO-A 2007/137867). Briefly, test compounds (at various concentrations) and the affinity matrix with the immobilized aminopyrido-pyrimidine ligand 24 were added to cell lysate aliquots and allowed to bind to the proteins in the lysate sample. After the incubation time the beads with captured proteins were separated from the lysate. Bound proteins were then eluted and the presence of JAK2 and JAK3 was detected and quantified using specific antibodies in a dot blot procedure and the Odyssey infrared detection system. Dose response curves for individual kinases were generated and IC50 values calculated. Kinobeads™ assays for ZAP-70 (WO-A 2007/137867) and for kinase selectivity profiling (WO-A 2006/134056) have been previously described.
# (§2) The affinity matrix was washed two times with 15 mL of 1×DP buffer containing 0.2% NP40 (IGEPAL® CA-630, Sigma, #I3021) and then resuspended in 1×DP buffer containing 0.2% NP40 (3% beads slurry).
# (§3) 5×DP buffer 250 mM Tris-HCl pH 7.4, 25% Glycerol, 7.5 mM MgCl2, 750 mM NaCl, 5 mM Na3VO4; filter the 5×DP buffer through a 0.22 μm filter and store in aliquots at −80° C. The 5×DP buffer is diluted with H2O to 1×DP buffer containing 1 mM DTT and 25 mM NaF.
# (§4) Stock solutions of test compounds were prepared in DMSO. In a 96 well plate 30 μL solution of diluted test compounds at 5 mM in DMSO were prepared. Starting with this solution a 1:3 dilution series (9 steps) was prepared. For control experiments (no test compound) a buffer containing 2% DMSO was used.
# Molt4 cells (ATCC catalogue number CRL-1582) and Ramos cells (ATCC catalogue number CRL-1596) were grown in 1 L Spinner flasks (Integra Biosciences, #182101) in suspension in RPMI 1640 medium (Invitrogen, #21875-034) supplemented with 10% Fetal Bovine Serum (Invitrogen) at a density between 0.15×106 and 1.2×10^6 cells/mL. Cells were harvested by centrifugation, washed once with 1×PBS buffer (Invitrogen, #14190-094) and cell pellets were frozen in liquid nitrogen and subsequently stored at −80° C. Cells were homogenized in a Potter S homogenizer in lysis buffer: 50 mM Tris-HCl, 0.8% NP40, 5% glycerol, 150 mM NaCl, 1.5 mM MgCl2, 25 mM NaF, 1 mM sodium vanadate, 1 mM DTT, pH 7.5. One complete EDTA-free tablet (protease inhibitor cocktail, Roche Diagnostics, 1873580) per 25 mL buffer was added. The material was dounced 10 times using a mechanized POTTER S, transferred to 50 mL falcon tubes, incubated for 30 minutes on ice and spun down for 10 minutes at 20,000 g at 4° C. (10,000 rpm in Sorvall SLA600, precooled). The supernatant was transferred to an ultracentrifuge (UZ)-polycarbonate tube (Beckmann, 355654) and spun for 1 hour at 100,000 g at 4° C. (33.500 rpm in Ti50.2, precooled). The supernatant was transferred again to a fresh 50 mL falcon tube, the protein concentration was determined by a Bradford assay (BioRad) and samples containing 50 mg of protein per aliquot were prepared. The samples were immediately used for experiments or frozen in liquid nitrogen and stored frozen at −80° C.
# (§5) Cell lysate (approximately 50 mg protein per plate) was thawed in a water bath at room temperature and then stored on ice. To the thawed cell lysate 1×DP 0.8% NP40 buffer containing protease inhibitors (1 tablet for 25 mL buffer; EDTA-free protease inhibitor cocktail; Roche Diagnostics 1873580) was added in order to reach a final protein concentration of 10 mg/mL total protein. The diluted cell lysate was stored on ice. Mixed Molt4/Ramos lysate was prepared by combining one volume of Molt4 lysate and two volumes of Ramos lysate (ratio 1:2).
# To a 96 well filter plate (Multiscreen HTS, BV Filter Plates, Millipore #MSBVN1250) were added per well: 100 μL affinity matrix (3% beads slurry), 3 μL of compound solution, and 50 μL of diluted lysate. […]
# Aurora B = biological target: T2, Aurora B (Homo sapiens, UniProt Q96GD4); experiment: Kinobeads assay, Aurora B; format: binding; conditions: for IC50: lysate of pervanadate-treated Jurkat cells, read-out: Inhibition values (IC50) Aur B
# T2 construct: cell lysates from Jurkat cells (ATCC TIB-152) used; endogenous in cells; host or cells: Jurkat cells (ATCC TIB-152), treated with pervanadate
# Protocol: as §1, §2, §3, §4, §5
# To a 96 well filter plate (Multiscreen HTS, BV Filter Plates, Millipore #MSBVN1250) were added per well: 100 μL affinity matrix (3% beads slurry), 3 μL of compound solution, and 50 μL of diluted lysate. Plates were sealed and incubated for 3 hours in a cold room on a plate shaker (Heidolph tiramax 1000) at 750 rpm. Afterwards the plate was washed 3 times with 230 μL washing buffer (1×DP 0.4% NP40). The filter plate was placed on top of a collection 1 plate (Greiner bio-one, PP-microplate 96 well V-shape, 65120) and the beads were then eluted with 20 μL of sample buffer (100 mM Tris, pH 7.4, 4% SDS, 0.00025% bromophenol blue, 20% glycerol, 50 mM DTT). The eluate was frozen quickly at −80° C. and stored at −20° C.
# The kinases in the eluates were detected and quantified by spotting on nitrocellulose membranes and using a first antibody directed against the kinase of interest and a fluorescently labelled secondary antibody (anti-rabbit IRDye™ antibody 800 (Licor, #926-32211). The Odyssey Infrared Imaging system from LI-COR Biosciences (Lincoln, Nebr., USA) was operated according to instructions provided by the manufacturer (Schutz-Geschwendener et al, 2004. Quantitative, two-color Western blot detection with infrared fluorescence. Published May 2004 by LI-COR Biosciences, www.licor.com).
# After spotting of the eluates the nitrocellulose membrane (BioTrace NT; PALL, #BTNT30R) was first blocked by incubation with Odyssey blocking buffer (LICOR, 927-40000) for 1 hour at room temperature. Blocked membranes were then incubated for 16 hours at the temperature shown in Table 5 with the first antibody diluted in Odyssey blocking buffer (LICOR #927-40000). Afterwards the membrane was washed twice for 10 minutes with PBS buffer containing 0.2% Tween 20 at room temperature. […]
# T1 sequence (O60674 whole entry): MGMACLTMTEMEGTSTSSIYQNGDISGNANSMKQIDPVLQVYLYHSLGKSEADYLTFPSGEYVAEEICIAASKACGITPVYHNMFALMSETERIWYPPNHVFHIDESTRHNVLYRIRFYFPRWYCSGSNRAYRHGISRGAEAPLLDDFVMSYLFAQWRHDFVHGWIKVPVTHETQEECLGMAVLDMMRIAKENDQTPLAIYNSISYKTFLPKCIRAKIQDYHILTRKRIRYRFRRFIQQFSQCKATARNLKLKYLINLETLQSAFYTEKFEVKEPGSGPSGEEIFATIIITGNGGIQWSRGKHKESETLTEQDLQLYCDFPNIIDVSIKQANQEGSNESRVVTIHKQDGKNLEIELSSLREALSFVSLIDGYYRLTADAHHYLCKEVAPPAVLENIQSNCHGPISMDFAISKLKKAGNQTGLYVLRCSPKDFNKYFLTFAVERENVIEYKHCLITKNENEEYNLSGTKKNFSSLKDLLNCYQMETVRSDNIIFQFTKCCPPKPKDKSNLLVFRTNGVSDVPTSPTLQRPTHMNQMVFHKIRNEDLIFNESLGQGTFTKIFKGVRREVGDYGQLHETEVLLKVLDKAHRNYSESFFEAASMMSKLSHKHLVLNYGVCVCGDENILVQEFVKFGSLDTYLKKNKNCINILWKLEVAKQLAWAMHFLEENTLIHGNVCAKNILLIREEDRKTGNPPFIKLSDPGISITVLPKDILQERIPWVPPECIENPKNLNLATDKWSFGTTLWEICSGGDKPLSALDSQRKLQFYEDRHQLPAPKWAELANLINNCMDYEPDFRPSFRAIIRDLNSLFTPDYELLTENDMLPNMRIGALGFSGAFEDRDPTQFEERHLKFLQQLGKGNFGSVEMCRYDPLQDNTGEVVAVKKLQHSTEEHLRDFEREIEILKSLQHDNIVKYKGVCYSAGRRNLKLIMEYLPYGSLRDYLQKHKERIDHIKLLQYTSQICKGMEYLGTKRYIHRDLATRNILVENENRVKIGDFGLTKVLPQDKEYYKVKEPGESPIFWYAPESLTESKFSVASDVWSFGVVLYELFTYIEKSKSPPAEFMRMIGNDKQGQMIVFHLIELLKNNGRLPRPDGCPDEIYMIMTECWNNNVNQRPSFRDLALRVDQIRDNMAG
# T2 sequence (Q96GD4 whole entry): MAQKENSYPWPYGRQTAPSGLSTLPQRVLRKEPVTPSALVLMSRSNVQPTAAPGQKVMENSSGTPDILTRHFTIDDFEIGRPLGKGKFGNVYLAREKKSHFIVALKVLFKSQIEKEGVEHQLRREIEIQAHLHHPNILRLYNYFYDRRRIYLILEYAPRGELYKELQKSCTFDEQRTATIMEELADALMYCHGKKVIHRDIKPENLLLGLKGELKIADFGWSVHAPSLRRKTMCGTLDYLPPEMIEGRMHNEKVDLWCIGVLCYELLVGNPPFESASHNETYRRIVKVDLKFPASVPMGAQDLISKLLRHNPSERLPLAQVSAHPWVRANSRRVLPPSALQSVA
IC50 (JAK2) [µM],JAK3/AurB Fold Selectivity (Aurora B),IC50 (Aurora B) [µM],Compound
≥ 10,10-50 Fold,1 to 10,"C[C@@H]1COCCN1c1cccc(Cn2ncc3cnc(Nc4cnn(C)c4)nc32)n1 [Example 1, (R)—N-(1-Methyl-1H-pyrazol-4-yl)-1-((6-(3-methylmorpholino)pyridin-2-yl)methyl)-1H-pyrazolo[3,4-d]pyrimidin-6-amine]"
1 to 10,>50 Fold,1 to 10,"Cn1cc(Nc2ncc3cnn(Cc4cccc(N5CCOCC5)c4)c3n2)cn1 [Example 2, N-(1-Methyl-1H-pyrazol-4-yl)-1-(3-morpholinobenzyl)-1H-pyrazolo[3,4-d]pyrimidin-6-amine]"
≥ 10,10-50 Fold,0.1 to 1,"Cn1cc(Nc2ncc3cnn(Cc4cccc(N5CCOCC5)n4)c3n2)cn1 [Example 3, N-(1-Methyl-1H-pyrazol-4-yl)-1-((6-morpholinopyridin-2-yl)methyl)-1H-pyrazolo[3,4-d]pyrimidin-6-amine]"
1 to 10,>50 Fold,0.1 to 1,"CN(C)CCCn1cc(Nc2ncc3cnn(Cc4cccc(N5CCOCC5)c4)c3n2)cn1 [Example 4, N-(1-(3-(Dimethylamino)propyl)-1H-pyrazol-4-yl)-1-(3-morpholinobenzyl)-1H-pyrazolo[3,4-d]pyrimidin-6-amine]"
≥ 10,>50 Fold,0.1 to 1,"OCCn1cc(Nc2ncc3cnn(Cc4cccc(N5CCOCC5)c4)c3n2)cn1 [Example 5, 2-(4-((1-(3-Morpholinobenzyl)-1H-pyrazolo[3,4-d]pyrimidin-6-yl)amino)-1H-pyrazol-1-yl)ethanol]"
≥ 10,>50 Fold,1 to 10,"Cn1cc(Nc2ncc3cnn(Cc4cccc(C(=O)N5CCOCC5)c4)c3n2)cn1 [Example 6, (3-((6-((1-Methyl-1H-pyrazol-4-yl)amino)-1H-pyrazolo[3,4-d]pyrimidin-1-yl)methyl)phenyl)(morpholino)methanone]"
≥ 10,10-50 Fold,0.1 to 1,"Cn1cc(Nc2ncc3cnn(Cc4cccc(CN5CCOCC5)c4)c3n2)cn1 [Example 7, N-(1-Methyl-1H-pyrazol-4-yl)-1-(3-(morpholinomethyl)benzyl)-1H-pyrazolo[3,4-d]pyrimidin-6-amine]"
≥ 10,10-50 Fold,1 to 10,"Cn1cc(Nc2ncc3cnn(Cc4cccc(N5CCCCC5)c4)c3n2)cn1 [Example 8, N-(1-Methyl-1H-pyrazol-4-yl)-1-(3-(piperidin-1-yl)benzyl)-1H-pyrazolo[3,4-d]pyrimidin-6-amine]"
≥ 10,10-50 Fold,0.1 to 1,"Cn1cc(Nc2ncc3cnn(Cc4cccc(C5CCOCC5)c4)c3n2)cn1 [Example 9, N-(1-Methyl-1H-pyrazol-4-yl)-1-(3-(tetrahydro-2H-pyran-4-yl)benzyl)-1H-pyrazolo[3,4-d]pyrimidin-6-amine]"
≥ 10,10-50 Fold,0.1 to 1,"CN1CCN(c2cccc(Cn3ncc4cnc(Nc5cnn(C)c5)nc43)c2)CC1 [Example 10, N-(1-Methyl-1H-pyrazol-4-yl)-1-(3-(4-methylpiperazin-1-yl)benzyl)-1H-pyrazolo[3,4-d]pyrimidin-6-amine]"
≥ 10,10-50 Fold,0.1 to 1,"Cc1c(Cn2ncc3cnc(Nc4cnn(C)c4)nc32)cccc1N1CCOCC1 [Example 11, N-(1-Methyl-1H-pyrazol-4-yl)-1-(2-methyl-3-morpholinobenzyl)-1H-pyrazolo[3,4-d]pyrimidin-6-amine]"
≥ 10,10-50 Fold,0.1 to 1,"CNC(=O)Cn1cc(Nc2ncc3cnn(Cc4cccc(N5CCOCC5)c4)c3n2)cn1 [Example 12, N-Methyl-2-(4-((1-(3-morpholinobenzyl)-1H-pyrazolo[3,4-d]pyrimidin-6-yl)amino)-1H-pyrazol-1-yl)acetamide]"
≥ 10,10-50 Fold,≥ 10,"CCOC(=O)C1CCCN(c2cccc(Cn3ncc4cnc(Nc5cnn(C)c5)nc43)c2)C1 (stereo not drawn) [Example 13, Ethyl 1-(3-((6-((1-methyl-1H-pyrazol-4-yl)amino)-1H-pyrazolo[3,4-d]pyrimidin-1-yl)methyl)phenyl)piperidine-3-carboxylate]"
≥ 10,10-50 Fold,0.1 to 1,"NC(=O)CCn1cc(Nc2ncc3cnn(Cc4cccc(N5CCOCC5)c4)c3n2)cn1 [Example 14, 3-(4-((1-(3-Morpholinobenzyl)-1H-pyrazolo[3,4-d]pyrimidin-6-yl)amino)-1H-pyrazol-1-yl)propanamide]"
≥ 10,10-50 Fold,1 to 10,"Cn1cc(Nc2ncc3cnn(Cc4cc(N5CCOCC5)ccc4F)c3n2)cn1 [Example 15, 1-(2-Fluoro-5-morpholinobenzyl)-N-(1-methyl-1H-pyrazol-4-yl)-1H-pyrazolo[3,4-d]pyrimidin-6-amine]"
1 to 10,10-50 Fold,0.1 to 1,"CN(C)C(=O)CCn1cc(Nc2ncc3cnn(Cc4cccc(N5CCOCC5)c4)c3n2)cn1 [Example 16, N,N-Dimethyl-3-(4-((1-(3-morpholinobenzyl)-1H-pyrazolo[3,4-d]pyrimidin-6-yl)amino)-1H-pyrazol-1-yl)propanamide]"
1 to 10,10-50 Fold,0.1 to 1,"Cn1cc(Nc2ncc3cnn(Cc4c(F)c(F)cc(N5CCOCC5)c4F)c3n2)cn1 [Example 17, N-(1-Methyl-1H-pyrazol-4-yl)-1-(2,3,6-trifluoro-5-morpholinobenzyl)-1H-pyrazolo[3,4-d]pyrimidin-6-amine]"
